Laboratory results published in US20220054387A1, “COMPOSITION COMPRISING AT LEAST ONE GLYCOSYLATED FLAVONOID AND ITS USE IN COSMETICS OR DERMATOLOGY” (PURALLY, priority 2020, published 2022).

Tests used:
[1] = tested on: IL-31; assay: IL-31 release by keratinocytes exposed to benzo[a]pyrene and blue light (ELISA); assay type: cell-based, human
Method: The cells used in this study are primary cultures of normal human keratinocytes (NHKs) extracted after skin surgery of a donor.
They were cultured in a complete KSFM environment: Keratinocyte-SFM (17005-31, Gibco) with L-Glutamine, supplemented with a recombinant human epidermal growth factor (EGFhr, 10450-013, Gibco), extract of bovine pituitary gland (BPE, 13028-014, Gibco) and 1% of streptomycin penicillin (15070-063, Gibco) at 37° C. in 5% CO2 atmosphere up until 80% confluence.
The keratinocytes cultured according to Example 1 are exposed either to benzo[a]pyrene (B[a]P) at 20 μμM, or to blue light (450 nm) at 40 J/cm^2 or to the combination of both at the same doses. A myricitrin treatment with amounts ranging from 10 μμM to 50 μμM is applied to cells that have previously received the B[a]P and blue light combination.
After 24 hours' treatment, an assay of the interleukin 31 (IL-31) released by the cells is performed, via an immunoassay kit (ELISA.) The IL-31 assay was performed with the human IL-31 ELISA MAX™ Deluxe Set (445704, Biolegend.)

[2] = tested on: normal human keratinocytes; assay: Keratinocyte viability assay (XTT); assay type: cell-based; settings: myricitrin 0.21 to 50 μμM, 24 hours
Method: The cells used in this study are primary cultures of normal human keratinocytes (NHKs) extracted after skin surgery of a donor. They were cultured in a complete KSFM environment: Keratinocyte-SFM (17005-31, Gibco) with L-Glutamine, supplemented with a recombinant human epidermal growth factor (EGFhr, 10450-013, Gibco), extract of bovine pituitary gland (BPE, 13028-014, Gibco) and 1% of streptomycin penicillin (15070-063, Gibco) at 37° C. in 5% CO2 atmosphere up until 80% confluence. On D0, normal human keratinocytes are incubated in 96-well plates in a culture medium. The cells are left to stabilize for 24 hours at 37° C. in 5% CO2 atmosphere, as described in Example 1. […] The NHK viability was assessed using a Cell Proliferation Kit II (XTT) (11465015001, Roche) in accordance with the manufacturer's instructions. The XTT system, a colorimetric method, is a test used to quantify mitochondrial activity. […] The formazan derivate is measured by spectrophotometry (at 450 nm with 650 nm of reference.) For each condition, optical density data averages (OD, absorbance) are calculated. The viability of the treated cells is expressed as a percentage of untreated control batch: a treatment that reduces the viability of the cells to below the comparative limit of 80% of mitochondrial activity in the untreated control batch, is considered cytotoxic for the cells. […]

SMILES	increase in IL-31 by the keratinocytes ([1]; benzo[a]pyrene 20 μμM combined with blue light (450 nm) 40 J/cm^2)	toxic effect on keratinocytes (cell viability, XTT) [2]	decrease in the production of IL-31 ([1]; myricitrin as of 20 μM, cells pre-treated with 20 μM of B[a]P and 40 J/cm^2 of blue light, 24 hours' treatment)
c1ccc2c(c1)cc1ccc3cccc4ccc2c1c34 [benzo[a]pyrene, reference compound]	+111%	–	–
C[C@@H]1O[C@@H](Oc2c(-c3cc(O)c(O)c(O)c3)oc3cc(O)cc(O)c3c2=O)[C@H](O)[C@H](O)[C@H]1O [myricitrin, 5,7-dihydroxy-3-[(2S,3R,4R,5R,6S)-3,4,5-trihydroxy-6-methyloxan-2-yl]oxy-2-(3,4,5-trihydroxyphenyl)chromen-4-one]	–	no toxic effect	−100%
